The values below come from patent US11427548B2 (Arvinas Operations, Inc., priority 2015, dated 2022).

Read-outs that look alike come from different tables or passages of the source.

This assay has as its target T1, Androgen Receptor (Homo sapiens, UniProt P10275).
T1 construct: endogenous in cells; host or cells: VCaP cells
T1 sequence (P10275 1-920): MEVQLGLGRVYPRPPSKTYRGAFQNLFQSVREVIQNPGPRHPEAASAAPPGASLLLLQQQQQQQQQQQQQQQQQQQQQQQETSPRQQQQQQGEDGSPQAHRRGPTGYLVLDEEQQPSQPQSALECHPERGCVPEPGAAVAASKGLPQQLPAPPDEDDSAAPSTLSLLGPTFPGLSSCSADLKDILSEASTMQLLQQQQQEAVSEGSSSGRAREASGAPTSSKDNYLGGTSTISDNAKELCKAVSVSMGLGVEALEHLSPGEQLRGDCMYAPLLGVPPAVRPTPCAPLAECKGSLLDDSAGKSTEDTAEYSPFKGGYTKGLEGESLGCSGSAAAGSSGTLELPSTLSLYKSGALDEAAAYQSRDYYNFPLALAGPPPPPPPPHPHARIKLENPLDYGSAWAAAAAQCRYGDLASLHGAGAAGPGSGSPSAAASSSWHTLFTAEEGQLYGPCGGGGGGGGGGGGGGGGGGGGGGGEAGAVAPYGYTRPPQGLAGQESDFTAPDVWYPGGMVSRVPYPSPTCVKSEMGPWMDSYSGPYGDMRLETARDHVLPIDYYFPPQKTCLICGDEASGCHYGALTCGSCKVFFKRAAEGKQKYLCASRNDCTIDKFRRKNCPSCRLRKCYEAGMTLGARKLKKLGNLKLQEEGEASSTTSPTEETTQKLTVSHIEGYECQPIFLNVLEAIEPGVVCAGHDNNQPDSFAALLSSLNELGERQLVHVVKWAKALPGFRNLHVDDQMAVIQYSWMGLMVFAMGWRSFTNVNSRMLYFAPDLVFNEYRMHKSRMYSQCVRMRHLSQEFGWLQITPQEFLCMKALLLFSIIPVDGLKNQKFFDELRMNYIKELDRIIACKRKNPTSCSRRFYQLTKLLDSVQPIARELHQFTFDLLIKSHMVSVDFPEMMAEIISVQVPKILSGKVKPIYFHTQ
In words: Androgen Receptor ELISA assay (PathScan AR ELISA) in VCaP cells: AR degradation, Dmax and DC50. The class given is cell-based. In outline: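 After 24 h exposure of VCaP cells (charcoal-stripped serum, 0.1 nM R1881 agonist, 0.1% DMSO) to seven half-log compound concentrations, residual AR in lysates was measured by PathScan ELISA (TMB absorbance, 450 nm). Cells were plated at 30,000/well and grown at least 3 days beforehand.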
(In general: ELISA stands for enzyme-linked immunosorbent assay.)

Where [1] appears, read: VCaP cells; Table 36; read-out: VCaP DC50.
Where [2] appears, read: VCaP, read-out: VCaP Dmax (%), VCaP cells; Table 36.
Where [3] appears, read: VCaP, VCaP cells; Table 36; read-out: VCaP Dmax (%).

One may read the DC50 as the concentration giving 50% degradation. For orientation: Dmax means the greatest extent of degradation seen. Consider `Cc1ncsc1-c1ccc(CNC(=O)[C@@H]2C[C@@H](O)CN2C(=O)[C@@H](NC(=O)CN2CCN(CCCc3cn(-c4ccc(C(=O)N[C@H]5C(C)(C)[C@H](Oc6ccc(C#N)c(C(F)(F)F)c6)C5(C)C)cc4)nn3)CC2)C(C)(C)C)cc1` [Example 710, (2S,4R)-1-((S)-2-(2-(4-(3-(1-(4-(((1r,3r)-3-(4-cyano-3-(trifluoromethyl)phenoxy)-2,2,4,4-tetramethylcyclobutyl)carbamoyl)phenyl)-1H-1,2,3-triazol-4-yl)propyl)piperazin-1-yl)acetamido)-3,3-dimethylbutanoyl)-4-hydroxy-N-(4-(4-methylthiazol-5-yl)benzyl)pyrrolidine-2-carboxamide], for which the DC50 under setting [1] is less than 50 nM. The Dmax (VCaP, read-out: VCaP Dmax (%)) is 51 to 70%.

As for `Cc1ncsc1-c1ccc(CNC(=O)[C@@H]2C[C@@H](O)CN2C(=O)C(NC(=O)COCCN2CCN(c3ccc(C(=O)N[C@H]4C(C)(C)[C@H](Oc5ccc(C#N)c(C(F)(F)F)c5)C4(C)C)cn3)C(=O)C2)C(C)(C)C)cc1` (stereo partly drawn) [Example 711, N-((1r,3r)-3-(4-cyano-3-(trifluoromethyl)phenoxy)-2,2,4,4-tetramethylcyclobutyl)-6-(4-(2-(2-(((S)-1-((2S,4R)-4-hydroxy-2-((4-(4-methylthiazol-5-yl)benzyl)carbamoyl)pyrrolidin-1-yl)-3,3-dimethyl-1-oxobutan-2-yl)amino)-2-oxoethoxy)ethyl)-2-oxopiperazin-1-yl)nicotinamide], the “VCaP Dmax (%)” value (VCaP cells; Table 36) is reported as “+ (Dmax ≤ 25%)”. Also, the DC50 under setting [1] is less than 50 nM.

For `Cc1ncsc1-c1ccc([C@H](NC(=O)[C@@H]2C[C@@H](O)CN2C(=O)[C@@H](NC(=O)CN2CCN(CCCc3ccc(C(=O)N[C@H]4C(C)(C)[C@H](Oc5ccc(C#N)c(C(F)(F)F)c5)C4(C)C)cc3)CC2)C(C)(C)C)C2COC2)cc1` [Example 712, (2S,4R)-1-((S)-2-(2-(4-(3-(4-(((1r,3r)-3-(4-cyano-3-(trifluoromethyl)phenoxy)-2,2,4,4-tetramethylcyclobutyl)carbamoyl)phenyl)propy)piperazin-1-yl)acetamido)-3,3-dimethylbutanoyl)-4-hydroxy-N-((R)-(4-(4-methylthiazol-5-yl)phenyl)(oxetan-3-yl)methyl)pyrrolidine-2-carboxamide], the DC50 under setting [1] is more than 501 nM. For the same compound, the Dmax (VCaP, read-out: VCaP Dmax (%)) is less than 25%.

As to `Cc1ncsc1-c1ccc([C@@H](NC(=O)[C@@H]2C[C@@H](O)CN2C(=O)[C@@H](NC(=O)CN2CCN(CCCc3ccc(C(=O)N[C@H]4C(C)(C)[C@H](Oc5ccc(C#N)c(C(F)(F)F)c5)C4(C)C)cc3)CC2)C(C)(C)C)C2COC2)cc1` [Example 713, (2S,4R)-1-((S)-2-(2-(4-(3-(4-(((1r,3r)-3-(4-cyano-3-(trifluoromethyl)phenoxy)-2,2,4,4-tetramethylcyclobutyl)carbamoyl)phenyl)propyl)piperazin-1-yl)acetamido)-3,3-dimethylbutanoyl)-4-hydroxy-N-((S)-(4-(4-methylthiazol-5-yl)phenyl)(oxetan-3-yl)methyl)pyrrolidine-2-carboxamide], the 50% degradation concentration (DC50) under setting [1] was less than 50 nM. Under “VCaP, read-out: VCaP Dmax (%)”, the Dmax is less than 25%.

As for `Cc1ncsc1-c1ccc([C@H](C)NC(=O)[C@@H]2C[C@@H](O)CN2C(=O)[C@@H](NC(=O)CCCN(C)[C@H](C(=O)N[C@H](C(=O)N(C)CCOc2ccc(N3C(=S)N(c4ccc(C#N)c(C(F)(F)F)c4)C(=O)C3(C)C)cc2)C(C)C)C(C)C)C(C)(C)C)cc1` [Example 714, (2S,4R)-1-((5S,8S,15S)-15-(tert-butyl)-1-(4-(3-(4-cyano-3-(trifluoromethyl)phenyl)-5,5-dimethyl-4-oxo-2-thioxoimidazolidin-1-yl)phenoxy)-5,8-diisopropyl-3,9-dimethyl-4,7,13-trioxo-3,6,9,14-tetraazahexadecan-16-oyl)-4-hydroxy-N-((S)-1-(4-(4-methylthiazol-5-yl)phenyl)ethyl)pyrrolidine-2-carboxamide], under “VCaP, read-out: VCaP Dmax (%)”, the Dmax was less than 25%. Further, for the setting “read-out: VCaP DC50; VCaP cells; Table 36”, the DC50 was more than 501 nM.

With `Cc1ncsc1-c1ccc([C@H](C)NC(=O)[C@@H]2C[C@@H](O)CN2C(=O)[C@@H](NC(=O)CN2CCN(CCCN3CCN(c4ccc(C(=O)N[C@H]5C(C)(C)[C@H](Oc6ccc(C#N)c(C#N)c6)C5(C)C)cn4)CC3)CC2)C(C)(C)C)cc1` [Example 715, N-((1r,3r)-3-(3,4-dicyanophenoxy)-2,2,4,4-tetramethylcyclobutyl)-6-(4-(3-(4-(2-(((S)-1-((2S,4R)-4-hydroxy-2-(((S)-1-(4-(4-methylthiazol-5-yl)phenyl)ethyl)carbam-oyl)pyrrolidin-1-yl)-3,3-dimethyl-1-oxobutan-2-yl)amino)-2-oxoethyl)piperazin-1-yl)propyl)piperazin-1-yl)nicotinamide], the DC50 under setting [1] is less than 50 nM. Under setting [2], the Dmax was in the range of 51 to 70%.

Consider `Cc1nc(O[C@H]2C(C)(C)[C@H](NC(=O)c3ccc(N4CCN(CCCN5CCN(CC(=O)O[C@H](C(=O)N6C[C@H](O)C[C@H]6C(=O)N[C@@H](C)c6ccc(-c7scnc7C)cc6)C(C)(C)C)CC5)CC4)nc3)C2(C)C)ccc1C#N` [Example 716, N-((1r,3r)-3-((5-cyano-6-methylpyridin-2-yl)oxy)-2,2,4,4-tetramethylcyclobutyl)-6-(4-(3-(4-(2-(((S)-1-((2S,4R)-4-hydroxy-2-(((S)-1-(4-(4-methylthiazol-5-yl)phenyl)ethyl)carbam-oyl)pyrrolidin-1-yl)-3,3-dimethyl-1-oxobutan-2-yl)amino)-2-oxoethyl)piperazin-1-yl)propyl)piperazin-1-yl)nicotinamdie], for which the DC50 under setting [1] was more than 501 nM. For the same compound, the Dmax under setting [3] lay within 26 to 50%.

As for `Cc1ncsc1-c1ccc([C@H](C)NC(=O)[C@@H]2C[C@@H](O)CN2C(=O)[C@@H](NC(=O)CN2CCN(CCCN3CCN(c4ccc(C(=O)N[C@H]5C(C)(C)[C@H](Oc6ccc(C#N)c(Cl)c6)C5(C)C)cn4)CC3)CC2)C(C)(C)C)cc1` [Example 717, N-((1r,3r)-3-(3-chloro-4-cyanophenoxy)-2,2,4,4-tetramethylcyclobutyl)-6-(4-(3-(4-(2-(((S)-1-((2S,4R)-4-hydroxy-2-(((S)-1-(4-(4-methylthiazol-5-yl)phenyl)ethyl)carbam-oyl)pyrrolidin-1-yl)-3,3-dimethyl-1-oxobutan-2-yl)amino)-2-oxoethyl)piperazin-1-yl)propyl)piperazin-1-yl)nicotinamide], the DC50 under setting [1] is less than 50 nM. Also, the Dmax (VCaP, read-out: VCaP Dmax (%)) lay within 51 to 70%.

Turning to `CO[C@@H]1C[C@@H](C(=O)N(C)Cc2ccc(-c3scnc3C)cc2)N(C(=O)[C@@H](N(C)C(=O)COCCCCCN(C)c2ccc(C(=O)N[C@H]3C(C)(C)[C@H](Oc4ccc(C#N)c(C(F)(F)F)c4)C3(C)C)nc2)C(C)(C)C)C1` [Example 718, N-((1r,3r)-3-(4-cyano-3-(trifluoromethyl)phenoxy)-2,2,4,4-tetramethylcyclobutyl)-5-((5-(2-(((S)-1-((2S,4R)-4-methoxy-2-(methyl(4-(4-methylthiazol-5-yl)benzyl)carbamoyl)pyrrolidin-1-yl)-3,3-dimethyl-1-oxobutan-2-yl)(methyl)amino)-2-oxoethoxy)pentyl)(meth-yl)amino)picolinamide], the DC50 under setting [1] is more than 501 nM. Moreover, the Dmax under setting [3] is less than 25%.

As for `Cc1ncsc1-c1ccc([C@H](C)NC(=O)[C@@H]2C[C@@H](O)CN2C(=O)[C@@H](NC(=O)COCCc2cn(-c3ccc(C(=O)N[C@H]4C(C)(C)[C@H](Oc5ccc(C#N)c(C(F)(F)F)c5)C4(C)C)cc3)nn2)C(C)(C)C)cc1` [Example 719, (2S,4R)-1-((S)-2-(2-(2-(1-(4-(((1r,3r)-3-(4-cyano-3-(trifluoromethyl)phenoxy)-2,2,4,4-tetramethylcyclobutyl)carbamoyl)phenyl)-1H-1,2,3-triazol-4-yl)ethoxy)acetamido)-3,3-dimethylbutanoyl)-4-hydroxy-N-((S)-1-(4-(4-methylthiazol-5-yl)phenyl)ethyl)pyrrolidine-2-carboxamide], the DC50 under setting [1] was less than 50 nM. Besides, under setting [2], the Dmax was more than 71%.

For `Cc1ncsc1-c1ccc([C@H](C)NC(=O)[C@@H]2C[C@@H](F)CN2C(=O)[C@@H](NC(=O)COCCN2CCN(c3ccc(C(=O)N[C@H]4C(C)(C)[C@H](Oc5ccc(C#N)c(Cl)c5)C4(C)C)cn3)CC2)C(C)(C)C)cc1` [Example 720, N-((1r,3r)-3-(3-chloro-4-cyanophenoxy)-2,2,4,4-tetramethylcyclobutyl)-6-(4-(2-(2-(((S)-1-((2S,4R)-4-fluoro-2-(((S)-1-(4-(4-methylthiazol-5-yl)phenyl)ethyl)carbam-oyl)pyrrolidin-1-yl)-3,3-dimethyl-1-oxobutan-2-yl)amino)-2-oxoethoxy)ethyl)pipera-zin-1-yl)nicotinamide], the DC50 under setting [1] was more than 501 nM. The Dmax under setting [2] was less than 25%.
